Measurements as given in patent US8017557B2, “Benzodioxole derivatives as modulators of proteolytic activity in plants” (Endura S.p.A., priority 2002, dated 2011).
Read-outs that look alike come from different tables or passages of the source.

Columns and labels:
bromelain = bromelain (Ananas comosus, UniProt P14518); experiment: biochemical
Description: Reverse micelles assay of ISO-AOT 50 mM (AOT: twin aerosol (2-ethylhexylsodiumsulfosuccinate in isooctane (ISO)); Wo (H2O/AOT)=28
The assays were carried out in the reverse-micelles assay dispersed in organic solvent, described by Walde et al. in Eur. J. Biochem., 1988, 173:401-409, and already reported in the literature in kinetic studies of the inhibition of trypsin with natural and synthetic inhibitors. […]
The enzyme assay on reverse-micelle has been already described in the literature for the enzyme trypsin and was adapted to different enzymes. […] To this solution was added an appropriate volume of substrate CBZ (dissolved in acetonitrile/H2O, 80:20 (v/v) at a concentration of 15 mM) and following further agitation (the solution returned to being transparent), the change in absorbance was measured (Dabs) at 340 nm with a Cary 219 spectrophotometer.
The experimental data obtained are represented graphically in the form of Dixon-plot (described for example in: “Quantitative Problems in Biochemistry”, E A. Dawes, 5th ed. 1972 Baltimore, The Williams and Wilkins Company), in the FIGS. 1, 2 and 3.

[1] = system: carboxypeptidase activity in cotton sprouts; conditions: for absorbance at 280 nm, Exp. n° 1, PBO Treated Cotton Sprouts / absorbance at 280 nm, Exp. n° 2, PBO Treated Cotton Sprouts / absorbance at 280 nm, Mean, PBO Treated Cotton Sprouts / Carboxypeptidase Activity (U), PBO Treated Cotton Sprouts: pH 6.5; for absorbance at 280 nm, Exp. n° 1, PBO Treated Cotton Sprouts / absorbance at 280 nm, Exp. n° 2, PBO Treated Cotton Sprouts / absorbance at 280 nm, Mean, PBO Treated Cotton Sprouts / % difference of carboxypeptidase activity, treated vs untreated / Δ U (carboxypeptidase activity, untreated vs PBO treated) / Carboxypeptidase Activity (U), PBO Treated Cotton Sprouts: 4th day of germination, PBO 1% w/v
Description: The extent of proteolytic activity in cotton sprouts was measured at 30′, 60′, 90′ and […] after suspension of the acetonic powder in aqueous buffer at pH 6.5 by determining the absorbance at 280 nm in a quartz cuvette, after protein precipitation with TCA and removal by centrifugation.
Each series of analysis was performed in duplicate. The comparison between the values of carboxypeptidase activity of treated and untreated samples was done using the average value of each series of analysis.
The basic idea was to “freeze” the physiologic protein hydrolysis enzymatic activity and to re-establish the process simply solubilizing the proteolytic enzymatic system in suitable buffers, which were 0.1 M phosphate pH 6.5 and 0.1 M tris-HCl pH 7.7, for evaluating both the carboxypeptidase and the endopeptidase activities according to the method described by Hile et al. 1972; Funkhouser et al. 1980.
Cotton seeds (cv. Carmela) were obtained from “Semillas Battle”, Barcelona (E).
The seeds were previously rinsed in tap water and then imbibed with aeration in distilled water over night (Funkhouser, E. A. et al., Z. Pflanzenphysiol., 1980, 100, 319-324).
The plastic boxes containing seeds were covered by a plastic film and placed in a germinator in the dark for 4 days at 30° C. as described in Hile, J. N. and Dure, L. S. J. Biol. Chem., 1972, 247: 5034-5040.
The cotton sprouts of 4 days were collected and frozen in liquid nitrogen and freeze dried (Hile et al. 1972). After this process, the material was crushed in a pestle and freed from fibrous material and settled up to obtain a pretty homogeneous meal of about 0.5 mesh.
The meals were defatted using n-hexane (1:10 w/v) at room temperature and then treated with acetone at −20° C. to remove pigments and polyphenolic compounds, in this case mainly gossypol. The powders obtained were stored in a dry box at room temperature.
The acetonic powder (30 mg) was suspended in buffer (4 ml) and incubated at 37° C. for 30, 60, 90, 120 minutes. The proteolysis was stopped adding 1 ml of 12% trichloroacetic acid. In this case, the buffer used was 0.1 M phosphate pH 6.5 (Hile et al. 1972). The control was a suspension of the same sample prepared in the same way but, in this case, it was immediately deactivated, adding 1 ml of trichloroacetic acid. The trials with treated and untreated samples were carried out at the same time.
Proteins were precipitated with trichloroacetic acid and then removed by filtration, before with Whatman paper n. 4 and then by micro-filtration (Orange Scientific Braine I'Alleud, Belgium (Ø0.2 μm)). Finally, the hydrolyzed protein samples were analyzed as clear solutions by determining the absorbance at 280 nm in a quartz cuvette.
Each series of analysis was performed twice. The comparison between the values of carboxypeptidase activity of treated and untreated samples was done using the average value of each series of analysis.

[2] = system: endopeptidase activity in cotton leaves; experiment: Radial Diffusion Assay (RDA) of endopeptidase activity in cotton plants; type: in vivo, cotton (cv. Sicala V2i); conditions: for Endopeptidase activity, cv. V2i Bt PBO: U = trypsin equivalents
Description: The […] of the clear zone produced by the plant extracts was compared to a standard curve obtained by a serial dilution of trypsin. A standard solution of trypsin was used to plot a standard curve for each sample plate, thus the endopeptidase activity was expressed as units of trypsin equivalents. For each extract, the amount of soluble proteins in mg was determined by the Biuret method and the enzymatic activity was then expressed as specific activity i.e. Units/mg soluble proteins. Abscissa: time (days); ordinate: trypsin units/mg soluble protein.
The samples were collected at different development stages of plants, which were: […], 60 and 85 days after sowing. These samples were also analysed for determining the Bt content (as described in example 4). To this aim, the enzymatic activity was tested on crude freeze dried leaf extracts with two different assays: the Radial Diffusion Assay (RDA), in which a protein, such as the bovine gelatine, was used as a substrate to test the endopeptidase activity, and a photometric assay described in the next example, in which DL-BAPA was used as a substrate, to determine a general peptidase activity.
A powder aliquot, which represents each step of plant growth, of the treated and controls samples was extracted in two steps. The powder sample was extracted with buffer 0.1 M Tris-HCl pH 7.7 (1:20 w/v) using an Ultraturrax blender at 24,000×RPM for 2 min in a ice bath to avoid overheating. […] The clear supernatant was collected and filtrated with Whatman paper no 4. The pellet was further extracted with the same procedure, with the exception that in this case the extraction ratio was 1:10 (w/v). Finally, the supernatants of the two extractions processes were joined and then concentrated 4-5 times by centrifugation at 3,000×g at 15° C. for 2 hours, using suitable concentrators (Amicon Inc. Beverly, Mass.—USA), fitted with a membrane of 10 κD cut off.
For each extract, the amount of soluble proteins was determined by the Biuret method and the enzymatic activity was then expressed as specific activity i.e. Units/mg soluble proteins.
RDA was performed as described in Santarius, K. and Ryan, C., Anal. Biochem., 1977, 77: 1-9 in Petri dishes containing bovine gelatine as substrate, dispersed in agar gel. Each dish contained 5 wells of which 4 were filled with suitable aliquots of concentrated cotton extracts, whereas one was filled with a bovine β-trypsin as standard solution (0.2 U/ml). The dishes were covered and sealed with a plastic film to avoid evaporation and then incubated at 37° C. for 16 hours.
The enzymatic activity in the protein-agar gel produced a clear radial diffusion zone around each circular wells, due to the bovine gelatine proteolysis against an opaque background.
The trypsin equivalents were calculated by measuring the radii of the clear zones produced by the plant extracts and compared to a standard curve obtained by a serial dilution of trypsin. Each dish contained a standard solution of trypsin that was used to plot a standard curve for each plate, thus the endopeptidase activity was expressed as units of trypsin equivalents.
Each analysis was performed in quadruplicate. […] In table 6 are shown the differences between treated and untreated cotton samples as percentages.

[3] = Time 0 (immediately deactivated)

Sequence of bromelain (P14518 whole entry): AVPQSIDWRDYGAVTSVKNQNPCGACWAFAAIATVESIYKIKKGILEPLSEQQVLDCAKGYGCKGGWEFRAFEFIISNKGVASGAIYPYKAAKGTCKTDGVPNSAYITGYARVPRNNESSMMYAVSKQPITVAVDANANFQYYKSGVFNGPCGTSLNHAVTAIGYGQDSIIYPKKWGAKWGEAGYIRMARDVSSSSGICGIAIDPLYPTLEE

CCCCOCCOCCOCc1cc2c(cc1CCC)OCO2 [PBO, 5-[[2-(2-Butoxyethoxy)ethoxy]methyl]-6-propyl-1,3-benzodioxole]
IC50 (bromelain): 400 µM
Ki (bromelain): 100 µM
proteolytic activity related to carboxypeptidase in treated samples ([1]; FIG. 4, treated vs untreated cotton sprouts): lower than in the untreated ones
absorbance at 280 nm, Exp. n° 1, PBO Treated Cotton Sprouts [1, 3]: 0.632
absorbance at 280 nm, Exp. n° 2, PBO Treated Cotton Sprouts [1, 3]: 0.729
absorbance at 280 nm, Mean, PBO Treated Cotton Sprouts [1, 3]: 0.68
% difference of carboxypeptidase activity, treated vs untreated ([1]; Time 30′): 55.7%
Δ U (carboxypeptidase activity, untreated vs PBO treated) ([1]; Time 30′): 0.083 U
Carboxypeptidase Activity (U), PBO Treated Cotton Sprouts ([1]; Time 30′): 0.066 U
absorbance at 280 nm, Exp. n° 1, PBO Treated Cotton Sprouts ([1]; Time 30′): 0.730
absorbance at 280 nm, Exp. n° 2, PBO Treated Cotton Sprouts ([1]; Time 30′): 0.763
absorbance at 280 nm, Mean, PBO Treated Cotton Sprouts ([1]; Time 30′): 0.746
% difference of carboxypeptidase activity, treated vs untreated ([1]; Time 60′): 39.3%
Δ U (carboxypeptidase activity, untreated vs PBO treated) ([1]; Time 60′): 0.081 U
Carboxypeptidase Activity (U), PBO Treated Cotton Sprouts ([1]; Time 60′): 0.125 U
absorbance at 280 nm, Exp. n° 1, PBO Treated Cotton Sprouts ([1]; Time 60′): 0.752
absorbance at 280 nm, Exp. n° 2, PBO Treated Cotton Sprouts ([1]; Time 60′): 0.858
absorbance at 280 nm, Mean, PBO Treated Cotton Sprouts ([1]; Time 60′): 0.805
% difference of carboxypeptidase activity, treated vs untreated ([1]; Time 90′): 43.5%
Δ U (carboxypeptidase activity, untreated vs PBO treated) ([1]; Time 90′): 0.087 U
Carboxypeptidase Activity (U), PBO Treated Cotton Sprouts ([1]; Time 90′): 0.113 U
absorbance at 280 nm, Exp. n° 1, PBO Treated Cotton Sprouts ([1]; Time 90′): 0.880
absorbance at 280 nm, Exp. n° 2, PBO Treated Cotton Sprouts ([1]; Time 90′): 0.838
absorbance at 280 nm, Mean, PBO Treated Cotton Sprouts ([1]; Time 90′): 0.859
% difference of carboxypeptidase activity, treated vs untreated ([1]; Time 120′): 61.0%
Δ U (carboxypeptidase activity, untreated vs PBO treated) ([1]; Time 120′): 0.158 U
Carboxypeptidase Activity (U), PBO Treated Cotton Sprouts ([1]; Time 120′): 0.101 U
absorbance at 280 nm, Exp. n° 1, PBO Treated Cotton Sprouts ([1]; Time 120′): 0.775
absorbance at 280 nm, Exp. n° 2, PBO Treated Cotton Sprouts ([1]; Time 120′): 0.787
absorbance at 280 nm, Mean, PBO Treated Cotton Sprouts ([1]; Time 120′): 0.781
Difference % Treated minus untreated (endopeptidase, RDA) ([2]; 4 days after sowing): 9.15%
Endopeptidase activity, cv. V2i Bt PBO ([2]; 4 days after sowing): 5.90 U/mg protein
Difference % Treated minus untreated (endopeptidase, RDA) ([2]; 35 days after sowing): −5.35%
Endopeptidase activity, cv. V2i Bt PBO ([2]; 35 days after sowing): 8.04 U/mg protein
Difference % Treated minus untreated (endopeptidase, RDA) ([2]; 60 days after sowing): −39.31%
Endopeptidase activity, cv. V2i Bt PBO ([2]; 60 days after sowing): 4.07 U/mg protein
Difference % Treated minus untreated (endopeptidase, RDA) ([2]; 85 days after sowing): −16.42%
Endopeptidase activity, cv. V2i Bt PBO ([2]; 85 days after sowing): 4.14 U/mg protein
